In patent US20120190004A1, “METHODS AND COMPOSITIONS FOR THE CRYOPRESERVATION OF DUCKWEED” (Biolex Therapeutics, Inc., priority 2009, published 2012):

Key:
Assay in all cases: Cryopreservation success rate after dormancy induction in sugar-supplemented medium
L. sp. Branson = assay type: in vivo
Procedure: (§1) Lemna minor duckweed plants were cultured on Schenk and Hildebrandt media with 20 mg/ml sucrose at an aerial temperature of between 21° C. and 30° C. and light levels ranging from 200 μM·M^−2·sec^−1 to 450 μM·M^−2·sec^−1 for 1 day up to 1 year. Three frond colonies (each frond colony comprised one or more daughter fronds attached to the mother frond) were aseptically transferred into a 2.0-mL cryovial containing a 900 μL solution of Schenk and Hildebrandt media, […] step. The frond colonies were incubated in this sugar solution for 21-30 days. Each 24-hour photoperiod was comprised of fluctuations in temperature and light levels. Specifically, the daytime hours consisted of culturing the duckweed frond colony at an aerial temperature of 10° C. with a light level of about 25 μM·M^−2·sec^−1 to about 50 μM·M^−2·sec^−1 for a duration of 3 hours, followed by an aerial temperature of 15° C. at a light level of about 25 μM·M^−2·sec^−1 to about 75 μM·M^−2·sec^−1 for a duration of 6 hours, and an aerial temperature of 10° C. with a light level of about 25 μM^−2·sec^−1 to about 50 μM·M^−2·sec^−1 for a duration of 3 hours. During the nighttime hours of the 24-hour photoperiod, the duckweed frond colonies were cultured at an aerial temperature of 4° C. in the absence of light for a duration of 12 hours.
(§2) The duckweed frond colonies were dehydrated in a laminar flow hood in 900 μL of a cryoprotective solution, comprising 1.92 M DMSO, […], 3.26 M glycerol, and 0.4 M sucrose at pH 5.8. The cryovials were incubated in this solution at 4° C. for 30 minutes to 2 hours in the absence of light. Following the incubation, the cryoprotective solution was removed and replaced with 900 μL of fresh cryoprotective solution.
(§3) The duckweed frond colonies were frozen in a slow rate freezer according to the following freezing protocol. The cryovials containing the duckweed frond colonies were held at 4° C. and the temperature was lowered to −4° C. at 1° C. per minute, to −40° C. at 25° C. per minute, and then raised to −12° C. at 10° C. per minute. The temperature was again lowered to −40° C. at 1° C. per minute, to −90° C. at 10° C. per minute, and then lowered to −150° C. at 10° C. per minute. Once frozen, the vials containing the frond colonies were transferred to the vapor phase of liquid nitrogen for storage.
(§4) After up to 17 months in storage, the frozen duckweed frond colonies were thawed and recovered as follows. The vials containing the frozen duckweed frond colonies were transferred from the liquid nitrogen storage tank to a laminar flow hood and were thawed at room temperature for approximately ten minutes. The cryoprotective solution was removed and replaced with 900 μL of Schenk and Hildebrandt medium, supplemented with 1.2 M sucrose, followed by a ten minute incubation at room temperature. The 1.2 M sucrose was subsequently diluted by a series of five dilutions whereby 450 μL of the 1.2 M sucrose solution was removed and replaced with 450 μL of Schenk and Hildebrandt medium supplemented with 20 mg/ml sucrose. Following the serial dilutions, the frond colonies were transferred to a petri dish with Schenk and Hildebrandt medium, supplemented with 10 mg/ml sucrose and 1% (weight/volume) agar. The duckweed frond colonies were cultured at an aerial temperature of between 21° C. and 30° C. with light levels ranging from about 20 μM·M^−2·sec^−1 to about 100 μM·M^−2·sec^−1 for 7-14 days prior to calculating the success rate of the cryopreservation procedure.
(§5) The cryopreservation success rate was calculated by the total number of visible daughter fronds (or daughter fronds with viable tissue) to survive the freezing process and successfully reproduce new daughter fronds as a percentage of the total number of visible daughter fronds that were frozen. Viability of tissue or of daughter fronds was assessed by the presence of green tissue and the ability of these fronds or frond tissues to reproduce and generate new daughter fronds. […]

Sp. polyrrhiza = assay type: in vivo, Spirodela polyrrhiza; details: single sugars 90 mg/ml unless the label says 20 mg/ml, six sugar combo 15 mg/ml each
L. yungensis = assay type: in vivo, Lemna yungensis; details: single sugars 90 mg/ml unless the label says 20 mg/ml, six sugar combo 15 mg/ml each
IFN61-B2-101 line = assay type: in vivo, Lemna minor
Procedure: as §1, §2, §3, §4, §5

L. minor = assay type: in vivo, Lemna minor
[1] = second set of experiments, single sugars 90 mg/ml unless the label says 20 mg/ml, six sugar combo 15 mg/ml each, listed as 20 mg/ml Sucrose
[2] = sugars at two concentrations: 90 mg/ml (1X) and 270 mg/ml (3X), listed as Sucrose 1X
[3] = sugars at two concentrations: 90 mg/ml (1X) and 270 mg/ml (3X), listed as Sucrose 3X
[4] = various concentrations of six sugar combination: total sugar 90 (1X), 216 (2.4X), 342 mg/ml (3.8X), or 20 mg/ml sucrose

With `OC[C@H]1O[C@@](CO)(O[C@H]2O[C@H](CO)[C@@H](O)[C@H](O)[C@H]2O)[C@@H](O)[C@@H]1O` [Sucrose, sucrose] the Cryopreservation success rate (L. sp. Branson; first set of experiments, single sugars 90 mg/ml unless the label says 20 mg/ml, six sugar combo 15 mg/ml each, in Schenk and Hildebrandt media during dormancy induction) was 100% (23/23), the Cryopreservation success rate (L. sp. Branson; first set of experiments, single sugars 90 mg/ml unless the label says 20 mg/ml, six sugar combo 15 mg/ml each, in Schenk and Hildebrandt media during dormancy induction, listed as 20 mg/ml Sucrose) was 96% (24/25) and the Cryopreservation success rate (L. sp. Branson; second set of experiments, single sugars 90 mg/ml unless the label says 20 mg/ml, six sugar combo 15 mg/ml each) was 87.5% (14/16). The Cryopreservation success rate (L. sp. Branson; [1]) was 88.2% (15/17), the Cryopreservation success rate (L. sp. Branson; [2]) was 100% (19/19) and the Cryopreservation success rate (L. sp. Branson; [3]) was 0% (0/14). The Cryopreservation success rate (L. sp. Branson; [4]) was 100% (24/24), the Cryopreservation success rate (Sp. polyrrhiza; first set of experiments) was 0% (0/10) and the Cryopreservation success rate (Sp. polyrrhiza; first set of experiments, listed as 20 mg/ml Sucrose) was 0% (0/14). The Cryopreservation success rate (Sp. polyrrhiza; second set of experiments) was 0% (0/12), the Cryopreservation success rate (L. yungensis; first set of experiments) was 0% and the Cryopreservation success rate (L. yungensis; second set of experiments) was 0%. The Cryopreservation success rate (IFN61-B2-101 line; [2]) was 89.5%, the Cryopreservation success rate (IFN61-B2-101 line; [3]) was 0% and the Cryopreservation success rate (IFN61-B2-101 line; [4]) was 100%. The Cryopreservation success rate (L. minor; dormancy induction 7-Day, 4° C. with no light) was 0% (0/28), the Cryopreservation success rate (L. minor; dormancy induction 7-Day, 9-10° C. with no light) was 14.82% (4/27) and the Cryopreservation success rate (L. minor; dormancy induction 7-Day, fluctuating temperature and light) was 33.3% (9/27). The Cryopreservation success rate (L. minor; dormancy induction 7-Day, fluctuating temperature with no light) was 65.39% (17/26), the Cryopreservation success rate (L. minor; dormancy induction 14-Day, 4° C. with no light) was 0% (0/22) and the Cryopreservation success rate (L. minor; dormancy induction 14-Day, 9-10° C. with no light) was 73.08% (19/26). For the same compound, the Cryopreservation success rate (L. minor; dormancy induction 14-Day, fluctuating temperature and light) was 96% (24/25), the Cryopreservation success rate (L. minor; dormancy induction 14-Day, fluctuating temperature with no light) was 100% (24/24) and the Cryopreservation success rate (L. minor; dormancy induction 21-Day, 4° C. with no light) was 4.17% (1/24). For the same compound, the Cryopreservation success rate (L. minor; dormancy induction 21-Day, 9-10° C. with no light) was 91.67% (22/24), the Cryopreservation success rate (L. minor; dormancy induction 21-Day, fluctuating temperature with no light) was 86.96% (20/23) and the Cryopreservation success rate (L. minor; dormancy induction 28-Day, 4° C. with no light) was 0% (0/20). The Cryopreservation success rate (L. minor; dormancy induction 28-Day, 9-10° C. with no light) was 97.37% (37/38), the Cryopreservation success rate (L. minor; dormancy induction 28-Day, fluctuating temperature and light) was 94.29% (33/35) and the Cryopreservation success rate (L. minor; dormancy induction 28-Day, fluctuating temperature with no light) was 100% (30/30). For the same compound, the Cryopreservation success rate (L. minor; first set of experiments, single sugars 90 mg/ml unless the label says 20 mg/ml, six sugar combo 15 mg/ml each, listed as 20 mg/ml Sucrose) was 42.3% (11/26), the Cryopreservation success rate (L. minor; [1]) was 43.8% (7/16) and the Cryopreservation success rate (L. minor; [2]) was 88.9% (16/18). The Cryopreservation success rate (L. minor; [3]) was 0% (0/11) and the Cryopreservation success rate (L. minor; [4]) was 92.9% (26/28).
